Blank lines part the entries; values can stand above or below the compound they belong to. The source made the active and inactive calls.
Legend:
[1] = biological target: Multidrug resistance protein CDR2 (Candida albicans (strain SC5314 / ATCC MYA-2876) (Yeast), UniProt P78595); assay: inhibition of Nile Red efflux via Candida CDR2 – S. cerevisiae AD1-8u, singleplex, Cherry Pick1 hits, dose response (AID 588604); assay type: functional
[2] = biological target: Benomyl/methotrexate resistance protein (Candida albicans, UniProt P28873); assay: Candida albicans Mdr1 pump inhibition curves – singleplex, Cherry Pick1 hits, dose response (AID 588608); assay type: functional
ORF 73 = ORF 73 (Human herpesvirus 8, UniProt O40947); assay: KSHV LANA DNA-binding disruption – biochemical, fluorescence polarization, cherry-picked samples, dose response (AID 504725); parameters: species or system Human gammaherpesvirus 8;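 note: fluorescence polarization of a labeled DNA duplex reporting LANA DNA binding; potency is for inhibitors that block LANA binding to the DNA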
[3] = biological target: Receptor tyrosine-protein kinase erbB-2 (Homo sapiens, UniProt P04626); assay: Navigating the Kinome. Panel member name: ERBB2; assay type: functional
[4] = biological target: Tyrosine-protein kinase Blk (Homo sapiens, UniProt P51451); assay type: functional;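 note: obtained as one member of a kinome-wide kinase assay panel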
[5] = biological target: Serine/threonine-protein kinase D2 (Homo sapiens, UniProt Q9BZL6); assay type: functional;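 note: measured against PRKD2 as one member of a kinome-wide kinase profiling panel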
Serine/threonine-protein kinase D2, sequence (Q9BZL6 whole entry): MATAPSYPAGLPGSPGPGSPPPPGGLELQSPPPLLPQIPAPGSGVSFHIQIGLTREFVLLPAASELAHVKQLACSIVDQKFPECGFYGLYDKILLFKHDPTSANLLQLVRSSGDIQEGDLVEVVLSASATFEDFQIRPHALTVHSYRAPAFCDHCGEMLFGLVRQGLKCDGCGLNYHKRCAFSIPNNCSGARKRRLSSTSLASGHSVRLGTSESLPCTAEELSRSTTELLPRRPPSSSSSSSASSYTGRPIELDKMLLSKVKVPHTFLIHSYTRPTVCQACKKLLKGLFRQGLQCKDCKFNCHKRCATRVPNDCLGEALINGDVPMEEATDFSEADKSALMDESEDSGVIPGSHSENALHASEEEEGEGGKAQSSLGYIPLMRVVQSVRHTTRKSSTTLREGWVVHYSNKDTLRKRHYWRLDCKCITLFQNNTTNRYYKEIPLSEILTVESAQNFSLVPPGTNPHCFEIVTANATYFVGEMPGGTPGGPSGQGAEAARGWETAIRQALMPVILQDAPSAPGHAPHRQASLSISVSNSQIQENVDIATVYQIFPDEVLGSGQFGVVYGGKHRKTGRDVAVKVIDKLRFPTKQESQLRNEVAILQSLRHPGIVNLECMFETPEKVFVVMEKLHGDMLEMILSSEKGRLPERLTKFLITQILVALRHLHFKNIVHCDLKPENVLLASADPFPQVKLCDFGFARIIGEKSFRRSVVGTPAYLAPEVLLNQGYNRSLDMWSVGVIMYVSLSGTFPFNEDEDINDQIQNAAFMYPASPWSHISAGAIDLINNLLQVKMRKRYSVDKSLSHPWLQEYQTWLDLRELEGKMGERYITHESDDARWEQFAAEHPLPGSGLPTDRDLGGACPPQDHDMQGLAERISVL

[6] = biological target: Tyrosine-protein kinase JAK2 (Homo sapiens, UniProt O60674); assay type: functional;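 note: JAK2 tested as one member of a kinase panel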
[7] = biological target: Vascular endothelial growth factor receptor 2 (Homo sapiens, UniProt P35968); assay type: functional
[8] = biological target: Serine/threonine-protein kinase pim-2 (Homo sapiens, UniProt Q9P1W9); assay type: functional;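 note: value comes from a broad kinase panel profiling study in which PIM2 was one of the panel members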
[9] = biological target: Tyrosine-protein kinase ITK/TSK (Homo sapiens, UniProt Q08881); assay type: functional;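 note: affinity for ITK measured as one member of a broad kinase panel profiling binding across the kinome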
[10] = biological target: Dual specificity tyrosine-phosphorylation-regulated kinase 1A (Homo sapiens, UniProt Q13627); assay type: functional;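 note: measured against DYRK1A as one member of a broad kinome profiling panel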
[11] = biological target: Tyrosine-protein kinase Fyn (Homo sapiens, UniProt P06241); assay type: functional
Activin receptor type-1 = Activin receptor type-1 (Homo sapiens, UniProt Q04771); assay: Navigating the Kinome. Panel member name: ACVR1; assay type: functional
Aurora kinase A = Aurora kinase A (Homo sapiens, UniProt O14965); assay type: functional;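 note: value from the Navigating the Kinome kinase panel profiling, panel entry STK6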
[12] = biological target: Serine/threonine-protein kinase PAK 4 (Homo sapiens, UniProt O96013); assay type: functional;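 note: value obtained within a kinome profiling panel in which PAK4 was one of the panel members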
[13] = biological target: Tyrosine-protein kinase JAK3 (Homo sapiens, UniProt P52333); assay type: functional
[14] = biological target: Insulin-like growth factor 1 receptor (Homo sapiens, UniProt P08069); assay: Navigating the Kinome. Panel member name: IGF1R; assay type: functional
[15] = biological target: Vascular endothelial growth factor receptor 1 (Homo sapiens, UniProt P17948); assay type: functional;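 note: measured within a kinome-wide profiling panel, FLT1 as the panel member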
[16] = biological target: Tyrosine-protein kinase ABL1 (Homo sapiens, UniProt P00519); assay type: functional
[17] = biological target: Leucine-rich repeat serine/threonine-protein kinase 2 (Homo sapiens, UniProt Q5S007); assay type: functional;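 note: value from a broad kinome-wide panel profiling study in which LRRK2 was one of the kinases tested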
Leucine-rich repeat serine/threonine-protein kinase 2, sequence (Q5S007 whole entry): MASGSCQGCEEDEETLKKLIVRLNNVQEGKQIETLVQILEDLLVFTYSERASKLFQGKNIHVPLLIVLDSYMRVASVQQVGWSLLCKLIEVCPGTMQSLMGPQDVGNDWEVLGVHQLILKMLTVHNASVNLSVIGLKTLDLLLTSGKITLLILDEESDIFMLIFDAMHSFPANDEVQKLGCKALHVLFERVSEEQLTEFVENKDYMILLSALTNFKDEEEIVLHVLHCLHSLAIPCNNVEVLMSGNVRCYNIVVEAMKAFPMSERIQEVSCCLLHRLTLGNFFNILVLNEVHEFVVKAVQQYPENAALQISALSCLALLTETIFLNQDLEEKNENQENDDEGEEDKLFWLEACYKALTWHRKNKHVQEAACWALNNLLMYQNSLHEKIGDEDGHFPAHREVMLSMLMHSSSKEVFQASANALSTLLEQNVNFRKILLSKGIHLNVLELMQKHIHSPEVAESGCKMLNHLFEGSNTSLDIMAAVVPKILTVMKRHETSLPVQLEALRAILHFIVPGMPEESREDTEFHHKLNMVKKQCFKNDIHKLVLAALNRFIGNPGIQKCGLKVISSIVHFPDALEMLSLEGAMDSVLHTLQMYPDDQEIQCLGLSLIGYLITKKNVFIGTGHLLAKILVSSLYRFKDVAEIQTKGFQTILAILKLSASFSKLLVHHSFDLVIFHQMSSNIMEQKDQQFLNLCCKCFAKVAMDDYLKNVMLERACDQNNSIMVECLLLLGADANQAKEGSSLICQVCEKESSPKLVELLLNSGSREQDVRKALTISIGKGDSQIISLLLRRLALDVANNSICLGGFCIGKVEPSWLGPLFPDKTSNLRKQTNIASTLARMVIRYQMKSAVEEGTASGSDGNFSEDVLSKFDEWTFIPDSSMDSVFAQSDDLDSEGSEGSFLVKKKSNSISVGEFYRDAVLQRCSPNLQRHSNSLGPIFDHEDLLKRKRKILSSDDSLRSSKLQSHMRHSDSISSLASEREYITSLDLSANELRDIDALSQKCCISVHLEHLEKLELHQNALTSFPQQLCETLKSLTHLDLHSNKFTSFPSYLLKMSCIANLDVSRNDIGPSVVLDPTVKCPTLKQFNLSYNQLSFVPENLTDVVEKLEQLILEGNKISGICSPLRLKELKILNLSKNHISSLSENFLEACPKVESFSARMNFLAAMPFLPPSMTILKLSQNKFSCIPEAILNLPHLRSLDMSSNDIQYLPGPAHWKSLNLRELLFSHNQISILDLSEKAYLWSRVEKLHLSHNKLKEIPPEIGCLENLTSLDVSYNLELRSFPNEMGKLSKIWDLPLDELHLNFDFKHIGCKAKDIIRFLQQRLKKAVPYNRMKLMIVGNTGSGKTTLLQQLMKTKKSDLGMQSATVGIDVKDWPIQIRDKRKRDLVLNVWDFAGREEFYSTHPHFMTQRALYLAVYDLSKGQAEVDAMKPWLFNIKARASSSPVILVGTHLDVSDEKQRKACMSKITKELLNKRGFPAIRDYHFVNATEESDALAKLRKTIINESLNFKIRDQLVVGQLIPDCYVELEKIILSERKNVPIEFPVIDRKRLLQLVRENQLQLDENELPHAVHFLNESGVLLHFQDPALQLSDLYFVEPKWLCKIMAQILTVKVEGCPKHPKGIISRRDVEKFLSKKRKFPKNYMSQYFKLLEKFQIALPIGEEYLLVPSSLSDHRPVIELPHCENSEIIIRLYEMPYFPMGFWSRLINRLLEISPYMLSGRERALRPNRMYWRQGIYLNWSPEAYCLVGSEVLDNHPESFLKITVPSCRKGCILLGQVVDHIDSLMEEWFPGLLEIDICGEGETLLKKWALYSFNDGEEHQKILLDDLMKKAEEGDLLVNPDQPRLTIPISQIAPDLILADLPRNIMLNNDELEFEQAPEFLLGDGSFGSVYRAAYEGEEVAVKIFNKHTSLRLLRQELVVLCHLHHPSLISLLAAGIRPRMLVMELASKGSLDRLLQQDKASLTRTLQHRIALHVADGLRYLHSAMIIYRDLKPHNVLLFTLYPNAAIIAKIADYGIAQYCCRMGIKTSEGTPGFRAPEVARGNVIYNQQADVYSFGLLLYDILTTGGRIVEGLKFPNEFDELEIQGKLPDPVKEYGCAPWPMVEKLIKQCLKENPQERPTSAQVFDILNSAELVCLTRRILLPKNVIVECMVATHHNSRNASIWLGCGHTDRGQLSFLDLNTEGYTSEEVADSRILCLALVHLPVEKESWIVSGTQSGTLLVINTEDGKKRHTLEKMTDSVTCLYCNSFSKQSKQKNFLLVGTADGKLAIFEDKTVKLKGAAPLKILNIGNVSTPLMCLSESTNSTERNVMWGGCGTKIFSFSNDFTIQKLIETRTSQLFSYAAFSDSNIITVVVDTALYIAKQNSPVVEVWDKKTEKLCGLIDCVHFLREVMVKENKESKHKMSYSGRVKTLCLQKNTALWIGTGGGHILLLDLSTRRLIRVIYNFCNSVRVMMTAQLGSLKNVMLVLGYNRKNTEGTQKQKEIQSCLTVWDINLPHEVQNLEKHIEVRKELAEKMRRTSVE

[18] = biological target: Mitogen-activated protein kinase 13 (Homo sapiens, UniProt O15264); assay type: functional
[19] = biological target: Dual specificity tyrosine-phosphorylation-regulated kinase 1B (Homo sapiens, UniProt Q9Y463); assay: Navigating the Kinome. Panel member name: DYRK1B; assay type: functional
[20] = biological target: Fibroblast growth factor receptor 3 (Homo sapiens, UniProt P22607); assay type: functional
[21] = biological target: MAP/microtubule affinity-regulating kinase 3 (Homo sapiens, UniProt P27448); assay type: functional;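 note: MARK3 affinity measured as one member of a kinome panel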
[22] = biological target: Tyrosine-protein kinase Lyn (Homo sapiens, UniProt P07948); assay type: functional;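 note: lyn as one member of a kinase panel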
CHO-K1 = assay: (§1) Counterscreen for antagonists of the orexin 1 receptor (OX1R; HCRTR1): Homogeneous time resolved fluorescence (HTRF)-based cell-based dose response assay to identify antagonists of the parental CHO-K1 cell line. [Related pubchem assays (depositor defined):AID434989, AID435008, AID463079, AID485270, AID492963, AID492964, AID492965, AID493232, AID504699, AID504701]; assay type: functional; settings: Cricetulus griseus
Orexin receptor type 2 [23] = biological target: T1, Orexin receptor type 2 (Homo sapiens, UniProt O43614); assay: Counterscreen assay for antagonists of the orexin 1 receptor (OX1R; HCRTR1): Homogeneous Time Resolved Fluorescence (HTRF)-based cell-based dose response assay for antagonists of the orexin 2 receptor (OX2R; HCRTR2), run by assay provider.; assay type: functional
T1 sequence (O43614 whole entry): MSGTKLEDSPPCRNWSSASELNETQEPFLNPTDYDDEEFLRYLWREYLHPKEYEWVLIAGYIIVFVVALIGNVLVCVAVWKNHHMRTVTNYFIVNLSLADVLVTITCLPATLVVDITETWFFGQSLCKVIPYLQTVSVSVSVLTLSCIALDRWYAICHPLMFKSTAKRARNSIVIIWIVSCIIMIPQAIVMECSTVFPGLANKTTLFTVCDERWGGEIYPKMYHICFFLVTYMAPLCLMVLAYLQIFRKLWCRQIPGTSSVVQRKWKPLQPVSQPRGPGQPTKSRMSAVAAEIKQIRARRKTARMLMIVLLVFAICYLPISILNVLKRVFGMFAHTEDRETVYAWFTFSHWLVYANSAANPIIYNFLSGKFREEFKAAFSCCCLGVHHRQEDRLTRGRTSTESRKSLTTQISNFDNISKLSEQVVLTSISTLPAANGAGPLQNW

[24] = biological target: T2, Orexin/Hypocretin receptor type 1 (Homo sapiens, UniProt O43613); assay: Homogeneous Time Resolved Fluorescence (HTRF)-based cell-based high throughput dose response assay for antagonists of the orexin 1 receptor (OX1R; HCRTR1). [Related pubchem assays (depositor defined):AID434989, AID435008, AID463079, AID485270, AID492963, AID492964, AID492965, AID493232, AID504717, AID504718]; assay type: functional
T2 sequence (O43613 whole entry): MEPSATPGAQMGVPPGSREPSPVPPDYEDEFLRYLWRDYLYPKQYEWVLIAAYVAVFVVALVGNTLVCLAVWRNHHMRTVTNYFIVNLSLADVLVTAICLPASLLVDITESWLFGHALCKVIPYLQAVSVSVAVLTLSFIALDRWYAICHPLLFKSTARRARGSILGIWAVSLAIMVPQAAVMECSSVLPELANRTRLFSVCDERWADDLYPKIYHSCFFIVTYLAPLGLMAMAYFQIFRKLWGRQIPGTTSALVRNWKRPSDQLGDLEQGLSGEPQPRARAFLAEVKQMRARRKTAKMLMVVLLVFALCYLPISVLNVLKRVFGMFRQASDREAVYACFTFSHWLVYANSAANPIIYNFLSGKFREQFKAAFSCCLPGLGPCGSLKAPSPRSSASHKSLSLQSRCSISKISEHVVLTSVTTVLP

Orexin receptor type 2 [25] = biological target: T1, Orexin receptor type 2; assay: Counterscreen assay for antagonists of the orexin 1 receptor (OX1R; HCRTR1): Fluorescence-based cell-based dose response assay for antagonists of the orexin 2 receptor (OX2R; HCRTR2), run by assay provider.; assay type: functional
[26] = as §1, with “Fluorescence-based” for “Homogeneous time resolved fluorescence (HTRF)-based”, “cell-based high throughput” for “cell-based”, “CHO” for “CHO-K1”; assay type: functional
[27] = biological target: T2, Orexin/Hypocretin receptor type 1; assay: Fluorescence-based cell-based high throughput dose response assay for antagonists of the orexin 1 receptor (OX1R; HCRTR1). [Related pubchem assays (depositor defined):AID434989, AID435008, AID463079, AID485270, AID492963, AID492964, AID492965, AID493232, AID504717, AID504718]; assay type: functional
[28] = biological target: T3, DNA dC->dU-editing enzyme APOBEC-3A (Homo sapiens, UniProt P31941); assay: SAR analysis of small molecule inhibitors of APOBEC3A DNA Deaminase via a fluorescence-based single-stranded DNA deaminase assay - Set 2.; assay type: functional; settings: read-out: IC50_Mean
T3 sequence (P31941 whole entry): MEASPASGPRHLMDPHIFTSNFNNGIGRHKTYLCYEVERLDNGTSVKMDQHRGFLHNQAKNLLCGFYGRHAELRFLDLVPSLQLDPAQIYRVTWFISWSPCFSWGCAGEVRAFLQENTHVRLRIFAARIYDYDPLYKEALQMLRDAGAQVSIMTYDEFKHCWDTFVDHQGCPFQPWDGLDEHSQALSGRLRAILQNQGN

[29] = biological target: T4, DNA dC->dU-editing enzyme APOBEC-3G (Homo sapiens, UniProt Q9HC16); assay: Dose Response confirmation of small molecule APOBEC3G DNA Deaminase Inhibitors via a fluorescence-based single-stranded DNA deaminase assay. [Related pubchem assays (depositor defined):AID493012, AID493028]; assay type: functional
T4 sequence (Q9HC16 whole entry): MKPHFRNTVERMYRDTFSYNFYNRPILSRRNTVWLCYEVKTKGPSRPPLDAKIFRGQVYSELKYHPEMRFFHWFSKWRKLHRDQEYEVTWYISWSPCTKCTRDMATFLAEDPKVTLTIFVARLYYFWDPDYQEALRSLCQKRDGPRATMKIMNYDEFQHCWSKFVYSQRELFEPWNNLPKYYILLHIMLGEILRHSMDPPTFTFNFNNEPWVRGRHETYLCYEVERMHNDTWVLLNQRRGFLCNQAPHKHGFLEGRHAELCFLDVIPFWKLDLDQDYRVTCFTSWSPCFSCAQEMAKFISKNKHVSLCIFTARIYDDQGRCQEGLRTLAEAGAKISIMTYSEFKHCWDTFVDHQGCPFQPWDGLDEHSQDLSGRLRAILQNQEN

[30] = biological target: T4, DNA dC->dU-editing enzyme APOBEC-3G; assay: SAR analysis of small molecule inhibitors of APOBEC3G DNA Deaminase via a fluorescence-based single-stranded DNA deaminase assay - Set 2.; assay type: functional; settings: read-out: IC50_Mean
[31] = biological target: T3, DNA dC->dU-editing enzyme APOBEC-3A; assay: A3A deaminase inhibition for selectivity – biochemical, dose response (AID 504722); assay type: functional
[32] = biological target: T4, DNA dC->dU-editing enzyme APOBEC-3G; assay: inhibition of APOBEC3G ssDNA deamination – biochemical, fluorescence, single-stranded DNA substrate, SAR follow-up (AID 602136); assay type: functional; settings: read-out: IC50_Mean
[33] = biological target: T3, DNA dC->dU-editing enzyme APOBEC-3A; assay: SAR analysis of small molecule inhibitors of APOBEC3A DNA Deaminase via a fluorescence-based single-stranded DNA deaminase assay.; assay type: functional; settings: read-out: IC50_Mean
[34] = biological target: Receptor-type tyrosine-protein kinase FLT3 (Homo sapiens, UniProt P36888); assay type: functional;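 note: FLT3 was tested as one member of a kinome-wide kinase panel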
Aurora kinase B = Aurora kinase B (Homo sapiens, UniProt Q96GD4); assay type: functional
[35] = biological target: Serine/threonine-protein kinase TAO1 (Homo sapiens, UniProt Q7L7X3); assay type: functional
[36] = biological target: Calcium/calmodulin-dependent protein kinase type II subunit gamma (Homo sapiens, UniProt Q13555); assay type: functional
[37] = biological target: Calcium/calmodulin-dependent protein kinase type II subunit beta (Homo sapiens, UniProt Q13554); assay type: functional
[38] = biological target: Calcium/calmodulin-dependent protein kinase type II subunit delta (Homo sapiens, UniProt Q13557); assay type: functional

SMILES: O=C1/C(=C/c2ccco2)Oc2c1ccc(O)c2CN1CCCCC1
- EC50 [1]: 18.4 µM (active)
- EC50 [2]: 9.63 µM (active)
- AC50 (ORF 73): 14.5 µM (active)

SMILES: O=S(=O)(c1cccc2cnccc12)N1CCCNCC1 [FASUDIL]
- Ki [3]: > 1.58 µM (inactive)
- Ki [4]: > 1.58 µM (inactive)
- Ki [5]: 1.26 µM (active)
- pKi [5]: 5.9
- Ki [6]: > 1.58 µM (inactive)
- Ki [7]: > 2 µM (inactive)
- Ki [8]: > 1.58 µM (inactive)
- Ki [9]: > 1.58 µM (inactive)
- Ki [10]: > 1.26 µM (inactive)
- Ki [11]: > 0.794 µM (inactive)
- Ki (Activin receptor type-1): > 3.98 µM (inactive)
- Ki (Aurora kinase A): > 1.58 µM (inactive)
- Ki [12]: > 5.01 µM (inactive)
- Ki [13]: > 1.58 µM (inactive)
- Ki [14]: > 1 µM (inactive)
- Ki [15]: > 0.398 µM (inactive)
- Ki [16]: > 0.631 µM (inactive)
- Ki [17]: 2 µM (active)
- pKi [17]: 5.7
- Ki [18]: > 7.94 µM (inactive)
- Ki [19]: > 1.26 µM (inactive)
- Ki [20]: > 2 µM (inactive)
- Ki [21]: > 5.01 µM (inactive)
- Ki [22]: > 1.58 µM (inactive)

SMILES: CCSc1ccc([C@@H]2[C@H]3C(=O)N(CC)C(=O)[C@H]3[C@]3(C(=O)OC)CCCCN23)cc1OC
- IC50 (CHO-K1): > 66.3 µM (inactive)
- IC50 (Orexin receptor type 2 [23]): > 50 µM (inactive)
- IC50 [24]: 2.65 µM (active)
- IC50 (Orexin receptor type 2 [25]): 6.4 µM (active)
- IC50 [26]: > 49.8 µM (inactive)
- IC50 [27]: 12.4 µM (inactive)

SMILES: S=c1[nH]nc2c3c4c(sc3ncn12)CCCC4
- IC50 [28]: > 99 µM (inactive)
- IC50 [29]: 0.992 µM (active)
- IC50 [30]: > 99 µM (inactive)
- IC50 [31]: > 100 µM (inactive)
- IC50 [32]: 3.15 µM (active)
- IC50 [33]: > 99 µM (inactive)

- Ki [34]: 2 µM (active)
- Ki (Aurora kinase B): 6.31 µM (active)
- Ki [35]: 7.94 µM (active)
- Ki [36]: 6.31 µM (active)
- Ki [37]: 3.98 µM (active)
- Ki [38]: 6.31 µM (active)
SMILES: CCCCOc1ccc(C(C)(C)CC)cc1S(=O)(=O)Nc1ccc(-c2csc3ncnc(N)c23)cc1
